According to US20250000847A1, “TREATMENT OF NEURODEGENERATIVE DISEASES WITH HDAC INHIBITORS” (CASE WESTERN RESERVE UNIVERSITY, priority 2021, published 2025):

How the values were obtained:
[1] = test system: very long chain fatty acids (VLCFA); experiment: Very long chain fatty acids produced by reactive astrocytes; type: cell-based; settings: compared to cells treated with DMSO
CCL5 = CCL5 secretion by reactive astrocytes (ELISA); type: cell-based, mouse; settings: for reduction of CCL5 secretion: compared to vehicle control
Protocol: Astrocytes were plated and treated exactly as described for the antigen cross presentation assay. However, after 24 hrs of incubation with either reactive astrocyte driving factors alone or with HDAC inhibitor treatment, conditioned media from the cells was collected and assayed for CCL5 using a commercially available colorimetric ELISA kit (RnD Cat #: DY478-05). Data was then fit to a standard four parameter logistic (4PL) curve and presented as pg/mL/cell, normalized to reactive astrocytes plus DMSO vehicle (FIG. 4).
Media was collected from mouse P2 primary astrocytes that had been cultured for 24 hrs in the presence of cytokines with and without HDAC3 inhibitors and compared to media from astrocytes not treated with cytokines. The concentration of CCL5, a cytokine secreted by reactive astrocytes, was measured in each of the respective media conditions based on the direct adsorption of CCL5 to a pre-coated capture antibody on the ELISA assay plate. The ELISA sandwich assay was performed according to the manufacturer's instructions (DY478-05, R&D Systems). Relative CCL5 concentration were measured based on absorbance measured by a plate reader.

[2] = test system: retinal ganglion cells (RGCs); experiment: Optic nerve crush model of neurodegeneration; type: in vivo, mouse; settings: 10 mg/kg daily i.p. for 14 days after optic nerve crush
Text: The optic nerve of adult mice was surgically accessed and crushed. […] 14 days after optic nerve crush surgery, retina were harvested and stained for the RGC marker BRN3A, and the pan neuronal maker BIII-tubulin.

[3] = test system: acetylated histone 4 (AcH4); experiment: Acetylated histone 4 in vivo (target engagement); parameters: species or system mouse; settings: chronic daily 10 mg/kg, then two days of 5 mg/kg LPS
Protocol: Mice were perfused with PBS followed by 4% paraformaldehyde, after which brains were extracted and cryopreserved in 30% sucrose then frozen in OCT and sectioned. The stain slides were washed with PBS then incubated overnight with primary antibody against acetyl-Histone H4 (EMD Millipore, 06-866). After primary incubation slides were then washed and labeled with AlexaFluor secondary antibodies (ThermoFisher). Images were captured on a Hamamatsu Nanozoomer S60 Slide scanner with NDP 2.0 software. Image analysis was performed using Perkin Elmer Columbus automated software.

spinal cord LPC lesion = experiment: Lysolecithin (LPC) injection model of focal tissue damage; type: in vivo, mouse
Protocol: This was based on a toxin-based model of CNS tissue damage, where lysolecithin (lysophosphatidylcholine (LPC)) is injected into the dorsal column of the spinal cord leading to cell death, demyelination, and axonal damage at 4 days post lesion (dpl).
Focal tissue damage in the spinal cord was induced by the injection of 1% LPC solution. 10-12 week old C57BL/6 female mice were anesthetized using isoflurane and a T10 laminectomy was performed. 1 μL of 1% LPC was infused into the dorsal column at a rate of […]. The animals were euthanized at day twelve after the laminectomy (n=6-9 per group). […] Mice were then processed for immunohistochemistry or electron microscopy.
Samples were processed as previously described (Najm et al., Nat Methods 8, 957-962, doi:10.1038/nmeth.1712 (2011)). Briefly, Mice were perfused with 4% PFA, 2% glutaraldehyde, and 0.1 M sodium cacodylate. Spinal cords were extracted and samples were osmicated, stained en bloc with uranyl acetate and embedded in EMbed 812, an Epon-812 substitute (EMS). Thin sections were cut, carbon-coated and imaged either on JEOL JEM-1200-EX electron microscope or a T12 electron microscope (FEI).

other HDAC = settings: at up to 15 μM; cited from earlier work
[4] = test system: genes associated with damaging and beneficial reactive astrocytes; experiment: Bulk RNAseq of reactive astrocytes; type: cell-based, mouse
Text: Total RNA was extracted from resting and reactive astrocytes using the same procedure as described for qPCR and sent to Novogene for mRNA Sequencing.
For gene expression analysis, reads were mapped to the mm10 genome using kallisto 0.46.1 (Bray et al., Nat Biotechnol 34, 525-527, doi:10.1038/nbt.3519 (2016)). Transcripts were summarized to the gene level with tximport (Soneson et al., F1OORes 4, 1521, doi:10.12688/fl000research.7563.2 (2015). Normalized expression and differentiation gene expression was then generated using DESEQ2 (Love et al., Genome Biol 15, 550, doi:10.1186/s13059-014-0550-8 (2014)).

[5] = test system: MHC Class I (H-2Kb) bound to OVA257-264 on reactive astrocytes; experiment: OVA257-264 peptide antigen cross presentation assay; type: cell-based, mouse
Protocol: To test whether HDAC inhibitors block the ability of reactive astrocytes to cross present exogenous antigen, cells were plated down in 96-well plates at a density of about 500 cells/mm^2. Cells were then treated with HDAC inhibitors for 1 hr prior to the addition of reactive astrocyte driving factors as the concentrations stated above. Cells were incubated for 24 hrs, after which, media was washed out and replaced with media containing the peptide fragment ovalbumin 257-264 (OVA257-264). Cells were then incubated overnight, and then stained for 2 hrs at 37° C. with APC-conjugated antibody against MHC Class I (H-2Kb) bound to OVA257-264, then visualized. The percent of H-2Kb positive cells as a percent of total live cells was determined (FIG. 3).
After 24 hours of treatment, these cells were cultured in the presence of the OVA257264 Peptide (GenScript RP10611 or Sigma S7951). After 12 hours, the cells were live-stained for two hours using a conjugated antibody targeted against an OVA257-264 peptide antigen. The cells were then fixed and imaged using the PerkinElmer Operetta CLS High-Content Analysis System.

[6] = Pharmacokinetics, brain tissue; type: in vivo, mouse
Protocol: Mice were then perfused with saline to remove blood from the brain. Brain tissue was then collected and snap frozen. Brain tissues were thawed at room temperature and homogenized in PBS. Calibration standards and study samples were extracted with 3× volume of acetonitrile containing 0.1% formic acid+200 ng/ml internal standard solution. Samples were then vortexed each for 1 minute and then transferred to an Eppendorf R5417R and centrifuged at 14000 rpm for 7 minutes. Following extraction of tissue homogenate calibrators and study samples were transferred directly to an autosampler microtiter plate for analysis. Samples were analyzed by LC-MS-MS in the positive ion electrospray ionization mode.

[7] = 10 mg/kg daily, lesion at 12 dpl

Nc1cc(F)ccc1NC(=O)/C=C/c1cnn(C/C=C/c2ccccc2)c1 [RGFP966]
levels of toxic very long chain fatty acids (VLCFA) [1]: decreased levels
reduction of CCL5 secretion (CCL5; 2.5 μM): about 70%
reduction of CCL5 secretion (CCL5; 5.0 μM): more than 80%
secretion of CCL5 by reactive astrocytes (CCL5; FIG. 4): significantly decrease
protection of retinal ganglion cells (RGCs) from neurodegeneration [2]: protects
levels of acetylated histone 4 (AcH4) [3]: increased
tissue repair (spinal cord LPC lesion; 10 mg/kg daily from −1 dpl, at 12 dpl, compared to vehicle-treated LPC mice): accelerated tissue repair
axons/mm^2 (spinal cord LPC lesion; [7]): increased
percentage of axons remyelinated (spinal cord LPC lesion; [7]): increased
total axons in lesions (spinal cord LPC lesion; [7]): increased
total remyelinated (spinal cord LPC lesion; [7]): increased
inhibition of other HDAC isozymes (other HDAC): no inhibition
expression of genes associated with beneficial reactive astrocytes (BRA) [4]: increasing expression
expression of genes associated with damaging reactive astrocytes (DRA) [4]: decreased expression
ability of reactive astrocytes to cross present antigen on MHC Class I ([5]; FIG. 3): decrease
inhibition of antigen cross-presentation by MHC Class I ([5]; at either 2.5 or 5.0 μM): completely inhibited
concentration in brain tissue ([6]; chronic treatment, 10 mg/kg i.p. daily): equal to the IC50
brain permeance ([6]; mice, 10 mg/kg i.p.): brain permeant
